Source: US20250127896A1, “CHIMERIC TIM4 RECEPTORS AND USES THEREOF” (CERO THERAPEUTICS HOLDINGS, INC., priority 2021, published 2025)
Entries after “also recorded” stand apart in the source; their conditions may differ.

What was measured:
A2780 cells = conditions: for A2780 cells eliminated, single agent: compared to untreated; for A2780 cells eliminated, combination with niraparib: niraparib 0.5 μM; for A2780 cells eliminated, combination with niraparib / A2780 cells eliminated, combination with olaparib: after 5 days of co-culture; for A2780 cells eliminated, combination with olaparib: olaparib 1.5 μM
Protocol: FIG. 34B: At 120 hours, the ratio of cells remaining in treated samples compared to untreated A2780 samples was quantified using the incucyte data from FIG. 34A. FIG. 34C: Proliferation of CER T cells in co-culture assays.
At day 0, media was exchanged and donor T cells from three subjects (FIG. 28) transduced with CER-1234, CER-1236, or control CER-1183 (FIG. 27A) were added at various effector:target ratios to A2780 cells treated with PARPi to assess chimeric Tim4 receptor-T cell activation, cytokine production, proliferation, and cytotoxic responses. Chimeric Tim4 receptor-T cells immunophenotyping and bulk supernatant analysis was performed on day 2 and day 5 following initiation of co-culture.
CER T-cell cytotoxic function was evaluated using the Incucyte® live-cell analysis system in co-culture assays with A2780 cells. A2780 cells engineered to constitutively express mCherry were pretreated with 1.5 μM olaparib, 0.5 μM niraparib or no drug for 96 hours. CER T cells (expanded for 6 days after transduction) in T-cell optimizer media containing IL-2, IL-7, and IL-15 were co-cultured with A2780 cells at an effector:target (E:T) ratio of 1:2 in the presence of the same concentrations of olaparib or niraparib.

phosphatidylserine (PS) = experiment: Single induction plate assay: IFN-γ by CER T cells on plate-bound phosphatidylserine (ELISA); type: cell-based; conditions: for IFN-γ production in response to phosphatidylserine: plate-bound PS; for IFNγ production by donor in response to increasing doses of plate-bound phosphatidylserine: three donors (31, 32, 38)
Excerpt: (§1) FIGS. 19A-19C: CER T cells are activated and produce IFN-γ in response to phosphatidylserine engagement in a cell-free in vitro system. FIG. 19A: IFN-γ production in response phosphatidylserine (PS). IFN-γ production was induced in CER-1236 and CER-1234 T cells stimulated with PS (FIG. 19A), but not with phosphatidylethanolamine (PE) (FIG. 19B). […] FIG. 19C: CER1236 T cells are capable of recursive stimulation in vitro. Recursive IFN-γ induction with 3 serial stimulations at the indicated time points following a 24-hour rest after the first stimulation.
as §1, with “FIG. 33A-33C:” for “FIGS. 19A-19C:”, “33A:” for “19A:”, “33A),” for “19A),”, “33B).” for “19B).”, “33C:” for “19C:”
FIG. 44 are graphs showing IFNγ production in CER1234 T cells (left) or CER1236 T cells (right) from three donors in response to titrating doses of plate-bound phosphatidylserine.
FIG. 45 are graphs showing IFNγ production in CER1234 T cells or CER1236 T cells by donor in response to increasing doses of plate-bound phosphatidylserine.
FIG. 46 are graphs showing IFNγ production in CER1234 T cells or CER1236 T cells by donor in response to increasing doses of plate-bound phosphatidylserine at day 14 post-thaw.
FIG. 47 are graphs showing T cell expansion (left), IFNγ production (center), and cell viability (right) in CER1236 T cells in response to increasing doses of plate-bound phosphatidylserine.
FIG. 48 are graphs showing T cell expansion (left), IFNγ production (center), and cell viability (right) in CER1234 T cells in response to increasing doses of plate-bound phosphatidylserine.
CER T-cell activation was assessed by measuring induction of IFN-gamma by plate- and cell-based assays. Single induction plate assay: varying concentrations of phosphatidylserine (PS) or phosphatidylethanolamine (PE), a control membrane phospholipid not recognized by wild type TIM-4 (wtTIM-4), were coated onto high-binding tissue culture plates. CER T cells were added and IFN-γ levels were measured 24 hours after ligand exposure by ELISA. EC50 concentrations were determined by nonlinear regression (agonist vs. response-variable slope (4 parameters)). Induction by recursive stimulation plate assay: CER T cells were added to phosphatidylserine coated plates (2.5-20 μg/mL PS coating). Five days later, CER T cells were transferred to uncoated plates with fresh T cell optimizer media for 24 hours. Then, CER T cells were transferred again to a fresh PS coated plate. Supernatant was collected to assess IFN-γ induction by ELISA at various timepoints during re-stimulation (24, 72, and 120 hours). Cell-based assay: cytokine induction was assessed by multiparametric ELISA using conditioned supernatants harvested after 120 hours from the cytotoxicity assay described below.
T cells obtained from three different donors were transduced with CER1234 or CER1236 and incubated on titrating doses of plate-bound phosphatidylserine.
24 hour IFNγ stimulation by plate-bound phosphatidylserine aligns with day 5 post-activation expansion for CER1236 T cells. […] 24 hour IFNγ stimulation by plate-bound phosphatidylserine aligns with day 5 post-activation expansion for CER1234 T cells.

Jeko1 TMEM30A−/− cells = experiment: CER T cell cytotoxicity against Jeko1 TMEM30A−/− cells (Incucyte); type: cell-based; conditions: for cytotoxic function against Jeko1 TMEM30A−/− cells: co-culture assays
Protocol: FIG. 22: CER1234 or CER1236 T cells display cytotoxic function against Jeko1 TMEM30A^−/− MCL cells as measured by incucyte assay.
Statistical analysis was performed using 2-way ANOVA.

[1] = Donor 38, 24 hours after ligand exposure
[2] = Donor 41, 24 hours after ligand exposure

Substance	cytotoxic activity of CER T cells alone against A2780 cells (A2780 cells)	A2780 cells eliminated, single agent (A2780 cells)	A2780 cells eliminated, combination with niraparib (A2780 cells)	A2780 cells eliminated, combination with olaparib (A2780 cells)	PS EC50 (IFN-γ production) (phosphatidylserine (PS); [1])	PS EC50 (IFN-γ production) (phosphatidylserine (PS); [2])	IFN-γ production in response to phosphatidylserine (phosphatidylserine (PS))	IFNγ production by donor in response to increasing doses of plate-bound phosphatidylserine (phosphatidylserine (PS))	targets eliminated (Jeko1 TMEM30A−/− cells; JeKo-1 PS+ cells, 96 hrs, low effector:target ratios)	cytotoxic function against Jeko1 TMEM30A−/− cells (Jeko1 TMEM30A−/− cells)	IFNγ production by donor on plate-bound phosphatidylserine at day 14 post-thaw (phosphatidylserine (PS); day 14 post-thaw)
CER-1234: chimeric Tim4 receptor: Tim4 binding domain-CD28tm-CD28-TLR2 TIR-CD3z, SEQ ID NO:18; tested as transduced T cells	limited cytotoxic activity	39%	58%	66%	3.52 µg/mL	1.88 µg/mL	specifically produce IFN-γ in a dose-dependent manner; also recorded: produced concentration-dependent IFN-γ responses	shows lower activation for donors 32 and 38	90%	efficiently eliminate Jeko1 TMEM30A^−/− cells	
CER-1236: chimeric Tim4 receptor: Tim4 binding domain-CD28tm-CD28-CD3z-TLR2 TIR, SEQ ID NO:19; tested as transduced T cells	limited cytotoxic activity	19%	81%	73%	4.74 µg/mL	3.16 µg/mL	specifically produce IFN-γ in a dose-dependent manner; also recorded: produced concentration-dependent IFN-γ responses	shows strong activation		efficiently eliminate Jeko1 TMEM30A^−/− cells	produces more IFNγ across all donors compared to CER1234 T cells
